Reference: US8507290B2, “Water-soluble silsesquioxanes as organic quantum dots for sensing and imaging” (National University of Singapore, priority 2009, dated 2013)

How the values were obtained:
[1] = system: dsDNA and RNA; settings: cited from earlier work
[2] = system: breast cancer cells (MCF-7); assay: One-photon and two-photon fluorescent cellular nucleus imaging (CLSM); format: cell-based; settings: 2 h, signals above 560 nm
Experimental: One-photon and two-photon fluorescence images of the MCF-7 cells were then obtained.
OPEF imaging was obtained by excitation of the cells at 488 nm and collection of fluorescence above 560 nm under the fixed parameters. […] As nucleolus is the site of ribosomal RNA synthesis, it has the highest concentration of RNA in nucleus.
For TPEF imaging, the dye concentrations are fixed at 1 μM, and the cellular images were acquired by excitation of the cells at near-infrared wavelength (760 nm) and collection of signals above 560 nm.

Molecule	light-up response toward dsDNA and RNA (commercial dyes) [1]	two-photon fluorescence (TPEF) imaging of nucleus ([2]; MCF-7, 1 μM dye, excitation at 760 nm)	one-photon fluorescence (OPEF) imaging: uptake and localisation ([2]; MCF-7, dye 1 μM (also 0.1 and 0.02 μM), excitation at 488 nm)
SYTO 9	nearly equal light-up responses toward dsDNA and RNA		
CCCN(CCCN(C)C)c1cc(/C=C2/Sc3ccccc3N2C)c2ccccc2[n+]1-c1ccccc1 [SG, SYBR Green I]	only shows strong light-up response toward dsDNA	does not provide a clear cellular image	homogenously-stained nucleus pattern
